Tests used:
[1] = system: Streptococcus pyogenes C203; test: mouse septicemia (in vivo test); conditions: CD-1 mice infected intraperitoneally; antibiotics administered subcutaneously immediately after infection; calculated on the 7th day from surviving animals (Spearman and Kaerber)
Description: In these in vivo tests control and treatment groups contained five CD-1 mice (Charles River) weighting 18-22 g. They were infected intraperitoneally with 0.5 ml of bacterial suspension prepared by diluting an overnight culture of Streptococcus pyogenes C203 with sterile peptonized saline. Inocula were adjusted so that untreated animals died of septicemia within 48 hours. Antibiotics were administered subcutaneously immediately after infection. On the 7th day, the ED50 in mg/kg was calculated by the method of Spearman and Kaerber (D.J. Finney, "Statistical Methods in Biological Assay", Griffin, page 524, 1952) from the percentages of surviving animals at each dose. The results of the in vivo testing of representative compounds of the invention are summmarized in Table II below: Table II

[2] = system: coagulase-negative staphylococci; test: in vitro antibacterial activity (MIC, microbroth dilution); type: cell-based; conditions: compared with the parent compounds (X vs I and VIII vs VII)

Row | Compound | ED50 [1] [mg/kg] | in vitro activity against coagulase-negative staphylococci [2]
1 | CN[C@H]1C(=O)N[C@@H]2Cc3ccc(cc3)Oc3cc4cc(c3O)Oc3ccc(cc3Cl)[C@@H](O)[C@@H]3NC(=O)[C@H](NC(=O)[C@@H]4NC(=O)[C@@H](NC2=O)c2cc(cc(O)c2Cl)Oc2cc1ccc2O)c1ccc(O)c(c1)-c1c(O)cc(O)cc1[C@@H](C(=O)O)NC3=O [A 40926 aglycone, reference compound] | 6.2 | –
2 | Demannosyl A 40926 complex 6^B-(2-bromoethyl) ester [compound VIII] | 0.31 | better in vitro activity
3 | O^42-demannosyl A 40926 6^B-methyl ester [compound X] | 0.31 | better in vitro activity
4 | antibiotic A 40926 complex 6^B-(2-hydroxyethyl) ester [compound V] | 0.18 | –
5 | antibiotic A 40926 complex 6^B-monoethyl ester [compound II] | 0.23 | –
6 | antibiotic A 40926 complex 6^B-monomethyl ester [compound I] | 0.18 | –

From patent EP0578644B1, “ANTIBIOTIC A 40926 ESTER DERIVATIVES” (GRUPPO LEPETIT S.p.A., priority 1991, dated 1992)
